Measured values: paper PMC6934184, “Selective DNA-PKcs inhibition extends the therapeutic index of localized radiotherapy and chemotherapy” (The Journal of Clinical Investigation, 2019)

Key:
[1] = test system: MCF7 cells; test: clonogenic survival with 2 Gy IR, DNA repair inhibitors; format: cell-based, Human; conditions: 1 h before and 24 h after IR
Description: Cells were washed in phosphate-buffered saline (PBS), trypsinized and counted. Cells were then reseeded at a known density in drug-free medium into 10 cm dishes (100 - 10 000 cells/dish) and incubated for 8-21 days. Colonies were fixed using Carnoys fixture (75% v/v methanol, 25% v/v acetic acid, Fisher), stained with crystal violet (0.4% w/v in water), and counted using a ColCount automated colony counter (Oxford Optronics). Cell survival was calculated as a percentage of the untreated control.
Alternatively, exponentially growing MCF7 cells were exposed to a range of concentrations of the PARP inhibitor rucaparib, the ATM inhibitor KU55933, the ATR inhibitor VE-821 or NU5455 for 1 hour prior to irradiation with 2 Gy. Cells were then incubated in the continued presence of the DNA repair inhibitors for a further 24 hours prior to replating. […]

[2] = test system: HAP-1 DNA-PK–null cells; test: clonogenic survival with IR; format: cell-based, human; conditions: 5 μM concomitant
Description: (§1) Exponentially growing HAP-1 DNA-PK proficient or deficient cells were seeded into 6-well plates and allowed to re-attach. Cells were then incubated with vehicle (DMSO) or NU5455 (5 µM) 1 hour prior to irradiation and for a further 24 hours post-irradiation. Cells were then washed in PBS and incubated in drug-free medium to allow for colony formation.
(§2) To quantify the number of proliferating versus confluent cells, cells were pulsed with 5-ethynyl-2’-deoxyuridine (EdU), and labeled using the Click-iT Plus EdU Alexa Fluor 647 Flow Cytometry Assay Kit together with FxCycle Violet Stain to label DNA (both Thermo Fisher) following the manufacturer’s instructions. Samples of cells taken from tho se used in the clonogenic assay were used to confirm the percentage of cells in each cell cycle phase.
(§3) Samples were acquired on a Symphony A5 flow cytometer (Becton Dickinson, UK).
(§4) Cell cycle phase status was also confirmed by microscopy, using cells grown on coverslips i n 6-well plates. […] Coverslips were mounted using Prolong Glass with NucBlue (ThermoFisher) and images were acquired on the Leica TCS SP8 confocal fluorescence […]
(§5) Treated cells were fixed with 10% (w/v) trichloroacetic acid (Fisher) at 4°C overnight. Cells were stained with sulphorhodamine B (SRB, 0.4% (w/v) in water), and cell density quantified

[3] = test system: HAP-1 cells that express 1 copy of PRKDC; test: clonogenic survival with IR; format: cell-based, human; conditions: 5 μM concomitant
Description: as §1, §2, §3, §4, §5

[4] = test system: Huh7 cells; test: Huh7 cells with single doxorubicin-loaded DC M1 bead (SRB cell density, γH2AX Western); format: cell-based, Human
Description: as §1, §2, §3, §4
Treated cells were fixed with 10% (w/v) trichloroacetic acid (Fisher) at 4°C overnight. Cells were stained with sulphorhodamine B (SRB, 0.4% (w/v) in water), and cell density quantified […]
by determining the absorbance at 570 nm of SRB stain dissolved in Tris base (10 mM, pH 10.5) using a spectrophotometer (BMG Labtech). […]
Blood samples were centrifuged at 6700 x g for 3 minutes, the plasma removed and stored at -20°C prior to analysis for drug by HPLC with fluorescence detection. […]
Samples (20 µl) were applied to a 10 x 0.46 cm Genesis C18 4 µm column (Grace Vydac) fitted with an in-line filter. […] Analytes were detected by fluorescence at 390 nm following excitation at 242 nm. Plasma concentrations were determined using linear standard curves (0.01 µM – 10 µM, R2 > 0.98) generated by extracting compounds from […]
Readings were taken every 2 hours for the first 10 hours and then at 24 hour intervals. […]

CN(C(=O)CN1CCOCC1)c1ccc2sc3c(-c4cccc5c(=O)cc(N6CC7CCC(C6)O7)oc45)cccc3c2c1 [NU5455]
SER (sensitization enhancement ratio), enhancement of 2 Gy IR clonogenic cell killing ([1]; at 1 μM): 11.5 fold | SER (sensitization enhancement ratio), enhancement of 2 Gy IR clonogenic cell killing ([1]; at 3 μM): 38 fold | response to IR (clonogenic) [2]: did not alter the response | clonogenic cell-killing effect of 1–4 Gy IR [3]: markedly increased | inhibition of cell density, single agent ([4]; 96 hours continuous, NU5455 1 μM or a single doxorubicin-loaded bead): ~ 20% | reduction of cell density, combination treatment ([4]; 96 hours, NU5455 1 μM + single doxorubicin-loaded bead): 57.7% ± 2.1% | γH2AX protein levels (DNA damage induced by released doxorubicin) ([4]; NU5455 1 μM + doxorubicin-loaded bead, 24–96 hours, Western blotting): augment and sustain the DNA damage
